These results are taken from US20250049680A1, “COMPOSITIONS AND METHODS FOR TREATING DENTIN CARIES” (Rutgers, The State University of New Jersey, priority 2023, published 2025).

Assay [1] in a line: Diametral tensile strength (DTS) of fortified dentin specimens after pH cycling. Also on record: species or system human. Particulars: for Diametral tensile strength: 5 min irrigation, 3-day pH cycling, mean ± SD; for DTS compared with the control group: in words; for DTS: pilot study, mean and standard deviation. Here is the method: (§1) The column was further developed with 150 mL of one of five metal chloride solutions (0.1 mol/L AA2P salts of Mg, Zn, Mn, Sr, and Ba) to obtain a fraction containing new cationic L-ascorbic acid 2 phosphates with Mg, Zn, Mn, Sr, or Ba (FIG. 2). The prepared dentin specimens were randomly divided into six groups according to the solution used. The canal of each section was covered with an adhesive wax at the lower surface of the dentin specimen. Dentin specimens were then irrigated with one of five intervening solutions (AA2P salts of Mg (0.18 mM), Zn (5.3 μM), Mn (2.2×10^-8 M), Sr (1.8 μM), and Ba (1.9 μM)) for five minutes, with the saline solution used as the control group. The root canals were then flushed with 10 mL of distilled water immediately after each treatment to remove excess solution.
(§2) Fortified dentin specimens were subjected to a pH cycling procedure with repeated sequences of de/remineralization. Artificial caries were formed in the dentin specimens by a 1-hour immersion in 2.5 mL of demineralizing solution (1.5 mM CaCl2), 0.9 mM KH2PO4, 50 mM acetate buffer, pH 4.8). All lesions were then immersed in 2.5 mL of remineralizing solution (1.5 mM CaCl2, 0.9 mM KH2PO4, 20 mM HEPES [4-(2-hydroxyethyl)-1-piperazineethanesulfonic acid], pH 7.0) for 23 hours. During each solution change, the specimens were rinsed with deionized water for 10 seconds. The pH cycling process was performed at 37 degrees Celsius for three days.
The cylindrical specimens were positioned on a customized loading fixture to ensure that the 1.00 mm diameter loading pin aligned with the center axis of the dentin cylinder. Additionally, flat platens were used at both ends of the specimens to further ensure alignment with the testing surface. The specimens were then loaded horizontally into a universal testing machine, receiving a uniaxial load perpendicular to their long axes and parallel to the dentinal tubule orientation. A 1.00 mm diameter stainless steel plunger was used to apply downward pressure on the dentin surface at 1.0 mm/min crosshead speed. The maximal load applied to the plug at the time of dislodgement was recorded in Newtons, and the DTS was calculated using the formula
where F is the force in Newtons, D is the diameter of the cylinder, and h is the height in mm.

A short description of assay [2]: Solubility evaluation: weight loss of fortified dentin in butyric acid. Set-up: species or system human. Particulars: for Solubility (weight loss): 0.1 M butyric acid pH 4.4, 24 h, 37 C, mean ± SD; for weight loss: pilot study, mean and standard deviation. As to the method:
as §1, with “solution. […]” for “solution.”
Fortified dentin specimens were completely immersed in 30 ml of 0.1 M butyric acid buffered with synthetic tissue fluid (pH 4.4) for 24 hours at 37 degrees C. and 100% relative humidity. After incubation, the specimens were removed from the acidic solutions, rinsed with distilled water to remove any residual acid, and dried. The weight of the dentin slices was measured by a digital microbalance before and after immersion into butyric acid, and the difference in weight provided information on dentin solubility.

Assay [3] is described as follows: Compressive strength of fortified dentin specimens after pH cycling. Set-up: species or system human. Particulars: for Compressive strength: 5 min irrigation, 3-day pH cycling, mean ± SD. Here is the method: as §1, §2
The procedure for compressive strength testing was the same as for DTS testing except for the orientation of the specimens in the universal testing machine. The loads were applied uniaxially, parallel to the long axes of the specimens, and perpendicular to the dentinal tubule orientation until the specimens fractured. To calculate the compressive strength (MPa), the failure load (N) was divided by the area of the specimen in contact with the load

Assay [4] in a line: SEM-EDS color dot map, intensity of the metal in dentin. Also on record: species or system human. Particulars: for Unit of Intensity: EDS dot map at 1000x, 0 to 255 scale, mean ± SD; for color intensity: pilot study, mean and standard deviation. As to the method: as §1
Three specimens from each group were examined by SEM-EDS mode to observe the precipitation of metallic components on the dentin surface. All specimens were sectioned at a depth of 500 μm (exposure surface to fortifying solutions) using a diamond-coated disk under water cooling. The specimens' surfaces were then polished and sputter-coated with 10 nm gold and observed under an SEM. An EDS color dot map analysis was performed for each specimen at 1000× to evaluate the distribution of trace elements. The intensity of Mg, Zn, Mn, Sr, and Ba was measured using ImageJ software. The color maps were converted to binary, and their mean color intensity (0 to 255 scale) was recorded as a unit of intensity (UI).

The nature of assay [5]: Surface microhardness of fortified dentin specimens after pH cycling. Set-up: species or system human. Particulars: for microhardness, rank among all the groups: in words. Here is the method:
as §1, §2
A Micro Met 5100 durometer microhardness tester was used to measure the hardness of the fortified dentin specimens after exposure to a caries inducing environment. Each dentin specimen was further divided into two sections. Three separate indentations were made in each section at depths of 100 μm and 500 μm from the pulp-dentin interface using a 300-g load with a dwell time of 20 seconds for each measurement. The indentations were then evaluated under an optical microscope, and the average length of their two diagonal lengths was used to determine the hardness. The average microhardness value of the indentations' results was considered representative of each depth in each specimen.

A short description of assay [6]: pH cycling model of artificial dentin caries. Set-up: species or system human. The following applies: in words. Here is the method:
as §2

Assay [7] can be described thus: Residual stress of treated dentin. Particulars: 5 min treatment with AA2P salts. As to the method: After establishing that inorganic trace minerals (IoTM) were dysregulated in dentin, Applicant aimed to examine if extrinsic supplementation could enhance dentinal mechanical properties. Specimens were treated with L-ascorbic acid 2-phosphate (AA2P) salts of IoTM as a solute carrier for the elements for 5 minutes. The following findings were observed, as described below.
Cationic substitution may lead to changes in residual stress. Stress magnitude and distribution by can be measured using XRD (Mn X-ray source, 1 mm aperture) as well as by slitting crack compliance, a destructive mechanical strain release technique, using whole dentin disk samples. In the slitting method, a rectangular sample with a strain gauge applied to the back side will be wired to the electrical discharge machine to cut through a sample to measure strain relief. Finite element analysis can be used to create the stress profile through the depth of a sample. However, the technique's accuracy is limited at the surface. In contrast, XRD is best for surface measurements with very high accuracy. Data can be acquired using a sine-squared psi method to indicate residual stress, modulus, and Poisson ratio. […] Pit depths can be measured using a drop gauge. […] The residual stress in the surface and sub-surface of dentin apatite (as deep as […]) can be determined.

The mark [8] stands for this setting: 100 and 500 μm depths combined, N=20.

“Also recorded” adds a separate entry of the source. Marks after values point to notes of the source that are not given here.

With `O=C1O[C@H]([C@@H](O)CO)C([O-])=C1OP(=O)([O-])[O-].O=C1O[C@H]([C@@H](O)CO)C([O-])=C1OP(=O)([O-])[O-].[Ba+2].[Ba+2].[Ba+2]` [Ba], in assay [1], the Diametral tensile strength is on record as 61.56 ± 3.55 ^b Mpa, the “DTS compared with the control group” value is reported as “significantly higher DTS than the control group” and the DTS was found to be 61.96±4.47 Mpa. Moreover, in assay [2], the “Solubility (weight loss)” value is given as 19.03 ± 2.99 ^a % and the weight loss is 18.96±3.44%. Besides, in assay [3], the Compressive strength is given as 157.96 ± 18.22 ^bc Mpa. Also, in assay [4] (500 μm depth), the “Unit of Intensity” value is 5.57 ± 0.95 ^b Ui. In addition, the color intensity in assay [4] turned out to be 5.55±1.34. In assay [5] (100 μM depth, N=10), the “Microhardness, Mean” value amounted to 45.00 kgf/mm^2. In addition, the “Microhardness, Mean” value in assay [5] (500 μM depth, N=10) came out at 60.00 kgf/mm^2. Moreover, in assay [5] (setting [8]), the “Microhardness, Mean” value came to 52.50 kgf/mm^2. For the same molecule, the “protection against artificial caries lesions” value in assay [6] was “protected the dentin lesions”.

On to `O=C1O[C@H]([C@@H](O)CO)C([O-])=C1OP(=O)([O-])[O-].O=C1O[C@H]([C@@H](O)CO)C([O-])=C1OP(=O)([O-])[O-].[Mg+2].[Mg+2].[Mg+2]` [Mg], for which, in assay [1], the Diametral tensile strength is recorded as 56.93 ± 11.93 ^b Mpa, the “DTS compared with the control group” value was “significantly higher DTS than the control group” and the DTS was determined as 57.60±15.21 Mpa. For the same molecule, in assay [2], the “Solubility (weight loss)” value is on record as 12.73 ± 4.92 ^a % and the weight loss is on record as 12.61±5.67%. In addition, the Compressive strength in assay [3] was 148.97 ± 6.89 ^b Mpa. Also, the “Unit of Intensity” value in assay [4] (500 μm depth) is on record as 9.76 ± 1.52 ^a Ui. In assay [4] (in words, 500 μm depth), the “intensity / penetration, rank among all the groups” value is “highest intensity; also recorded: highest penetration”. This molecule also registered a color intensity in assay [4] of 9.9±2.12. The “Microhardness, Mean” value in assay [5] (100 μM depth, N=10) is listed as 38.10 kgf/mm^2. Also, the “Microhardness, Mean” value in assay [5] (500 μM depth, N=10) came to 57.20 kgf/mm^2. The “Microhardness, Mean” value in assay [5] (setting [8]) is 47.65 kgf/mm^2.

`O=C1O[C@H]([C@@H](O)CO)C([O-])=C1OP(=O)([O-])[O-].O=C1O[C@H]([C@@H](O)CO)C([O-])=C1OP(=O)([O-])[O-].[Mn+2].[Mn+2].[Mn+2]` [Mn]: in assay [1], the Diametral tensile strength is 56.07 ± 9.39 ^b Mpa, the “DTS compared with the control group” value was “significantly higher DTS than the control group” and the DTS is listed as 55.80±11.56 Mpa. Also, in assay [2], the “Solubility (weight loss)” value is 16.69 ± 3.97 ^a % and the weight loss came out at 16.48±4.55%. In assay [3], the Compressive strength is listed as 148.03 ± 9.82 ^b Mpa. Further, the “Unit of Intensity” value in assay [4] (500 μm depth) is 6.57 ± 0.95 ^b Ui. This molecule had a color intensity in assay [4] of 6.1±0.71. Further, the “Microhardness, Mean” value in assay [5] (100 μM depth, N=10) is on record as 40.60 kgf/mm^2. In addition, the “Microhardness, Mean” value in assay [5] (500 μM depth, N=10) is on record as 58.80 kgf/mm^2. In assay [5] (setting [8]), the “Microhardness, Mean” value is 49.70 kgf/mm^2.

On to `O=C1O[C@H]([C@@H](O)CO)C([O-])=C1OP(=O)([O-])[O-].O=C1O[C@H]([C@@H](O)CO)C([O-])=C1OP(=O)([O-])[O-].[Sr+2].[Sr+2].[Sr+2]` [Sr], for which the Diametral tensile strength in assay [1] is listed as 60.01 ± 2.70 ^b Mpa. Further, the “DTS compared with the control group” value in assay [1] is “significantly higher DTS than the control group”. In assay [1], this molecule gave a DTS of 59.99±1.91 Mpa. Further, the “Solubility (weight loss)” value in assay [2] is reported as 18.53 ± 3.74 ^a %. Besides, the weight loss in assay [2] amounted to 18.16±4.21%. The Compressive strength in assay [3] was 174.01 ± 11.09 ^c Mpa. Further, the “compressive strength, rank among all the groups” value in assay [3] (in words) is “highest”. Also, in assay [4] (500 μm depth), the “Unit of Intensity” value is given as 6.03 ± 0.67 ^b Ui. This molecule also had a color intensity in assay [4] of 6.2±0.85. The “Microhardness, Mean” value in assay [5] (100 μM depth, N=10) is 47.60 kgf/mm^2; in assay [5] (500 μM depth, N=10), 59.10 kgf/mm^2; in assay [5] (setting [8]), 53.35 kgf/mm^2. Moreover, the “microhardness, rank among all the groups” value in assay [5] (100 μm depth) and in assay [5] (depths combined) was “highest” each time. The “kind of residual stress generated” value in assay [7] is listed as “compressive residual stress”.

Regarding `O=C1O[C@H]([C@@H](O)CO)C([O-])=C1OP(=O)([O-])[O-].O=C1O[C@H]([C@@H](O)CO)C([O-])=C1OP(=O)([O-])[O-].[Zn+2].[Zn+2].[Zn+2]` [Zn], in assay [1], the Diametral tensile strength was 54.97 ± 10.12 ^b Mpa, the “DTS compared with the control group” value is listed as “significantly higher DTS than the control group” and the DTS was determined as 53.98±9.94 Mpa. For the same molecule, in assay [2], the “Solubility (weight loss)” value is 12.88 ± 3.39 ^a % and the weight loss turned out to be 12.55±3.82%. Also, the Compressive strength in assay [3] is on record as 152.40 ± 15.07 ^b Mpa. Further, the “Unit of Intensity” value in assay [4] (500 μm depth) is 7.1 ± 1.04 ^b Ui. In assay [4], this molecule returned a color intensity of 7.35±1.34. In assay [5] (100 μM depth, N=10), the “Microhardness, Mean” value was 40.30 kgf/mm^2. For the same molecule, the “Microhardness, Mean” value in assay [5] (500 μM depth, N=10) is recorded as 56.30 kgf/mm^2. Moreover, the “Microhardness, Mean” value in assay [5] (setting [8]) was 48.30 kgf/mm^2. The “kind of residual stress generated” value in assay [7] is given as “tensile residual stress”. Further, the “protection against artificial caries lesions” value in assay [6] is recorded as “protected the dentin lesions”.
